This is an account of results in patent US4089862A, “Pyridyl substituted ergoline derivatives” (Societa' Farmaceutici Italia S.p.A., priority 1976, dated 1978).

The subject of the assay is rabbit platelets. Put plainly: ADP induced platelet aggregation in vitro, turbidimetric method (Born and Cross, modified). The note with it: percent of ADP controls, rabbit PRP. It counts as cell-based. The source says:
For the relevant study on the platelet aggregation "in vitro" herein, the turbidimetric method initially described by Born and Cross (J. Physiol. 168, 178, 1963) has been followed with some changes, principally due to the use of rabbit platelets, rather than human or pig platelets, as reported in their original work: (1) Preparation of platelet-rich plasma (PRP) and platelet-poor plasma (PPP) Male rabbits weighing 2.5-3.5 kg were used. Fifty four ml of blood were withdrawn from the carotid artery of rabbits anaesthetized with ether. The blood was gently mixed with six ml of 3.8% trisodium citrate as anticoagulant. The PRP was obtained by centrifugation at 400 g for 10 minutes. The concentration of the platelets was adjusted to 250,000/mm^3 by diluting the PRP with PPP prepared by a second centrifugation of the blood samples for about 10 minutes at 2000 g. The aggregation experiments were in general performed within 1-2 hr. from the time of blood collection. (2) ADP induced platelet aggregation In the cuvette of the aggregometer, reagents were added as follows: 0.8 ml PRP, 0.2 ml drug solution or saline, and 0.2 ml ADP (adenosine diphosphate) at the molar concentration of 2.2 × 10^-4. The turbidimetry was checked after 11/2, 3 and 6 minutes. The inhibition of the aggregation is given in the table as percent of ADP controls at these three times.

[1] abbreviates: 1 minute and 30 seconds after ADP, 50 γ.
Where [2] appears, read: 1 minute and 30 seconds after ADP, 100 γ.
Setting [3] is: 1 minute and 30 seconds after ADP, 200 γ.

For `CO[C@]12C[C@@H](COC(=O)c3cncc(Br)c3)CN(C)[C@@H]1Cc1cn(C)c3cccc2c13` [355/347, 10-methoxy-1,6-dimethyl-8β-methanol-5-bromonicotinate, reference compound], the “percent inhibition of platelet aggregation” value (“percent inhibition” below) by setting is: under setting [1], 11%; under setting [2], 24%; under setting [3], 40%; (3 minutes after ADP, 50 γ) 12%; (3 minutes after ADP, 100 γ) 21%; (3 minutes after ADP, 200 γ) 50%. The “percent inhibition” value is, setting by setting: (6 minutes after ADP, 50 γ) 22%; (6 minutes after ADP, 100 γ) 33%; (6 minutes after ADP, 200 γ) 60%.

Turning to `CO[C@]12C[C@@H](CNc3cc(C)cc(C)n3)CN(C)[C@@H]1Cc1cn(C)c3cccc2c13` [compound 897, N-(4',6'-dimethyl-2'-pyridyl)-10α-methoxy-1,6-dimethylergoline-8β-methanamine], the “percent inhibition” value stood at 31% under setting [1]; 62% under setting [2]; 89% under setting [3]; 22% (3 minutes after ADP, 50 γ); 51% (3 minutes after ADP, 100 γ); 91% (3 minutes after ADP, 200 γ). The “percent inhibition” value (6 minutes after ADP, 50 γ) came out at 25%; the “percent inhibition” value (6 minutes after ADP, 100 γ) was 56%; the “percent inhibition” value (6 minutes after ADP, 200 γ) turned out to be 92%.

As to `CO[C@]12C[C@@H](CNc3cc(C)ccn3)CN(C)[C@@H]1Cc1cn(C)c3cccc2c13` [compound 894, N-(4'-methyl-2'-pyridyl)-10α-methoxy-1,6-dimethylergoline-8β-methanamine], the “percent inhibition” value runs as follows: under setting [1], 22%; under setting [2], 61%; under setting [3], 100%; (3 minutes after ADP, 50 γ) 22%; (3 minutes after ADP, 100 γ) 61%; (3 minutes after ADP, 200 γ) 100%. The “percent inhibition” value amounted to 29% (6 minutes after ADP, 50 γ); 71% (6 minutes after ADP, 100 γ); 100% (6 minutes after ADP, 200 γ).

For the molecule `CO[C@]12C[C@@H](CNc3ccccn3)CN(C)[C@@H]1Cc1cn(C)c3cccc2c13` [compound 925, N-(2'-pyridyl)-10α-methoxy-1,6-dimethylergoline-8β-methanamine], the “percent inhibition” value turned out to be 16% under setting [1]; 50% under setting [2]; 100% under setting [3]; 21% (3 minutes after ADP, 50 γ); 56% (3 minutes after ADP, 100 γ); 100% (3 minutes after ADP, 200 γ). The “percent inhibition” value is 30% (6 minutes after ADP, 50 γ); 65% (6 minutes after ADP, 100 γ); 100% (6 minutes after ADP, 200 γ).

Turning to `CO[C@]12C[C@@H](CNc3ccc(Br)cn3)CN(C)[C@@H]1Cc1cn(C)c3cccc2c13` [compound 893, N-(5'-bromo-2'-pyridyl)-10α-methoxy-1,6-dimethylergoline-8β-methanamine], the “percent inhibition” value reads like this: under setting [1], 31%; under setting [2], 58%; under setting [3], 63%; (3 minutes after ADP, 50 γ) 14%; (3 minutes after ADP, 100 γ) 46%; (3 minutes after ADP, 200 γ) 69%. The “percent inhibition” value (6 minutes after ADP, 50 γ) came to 7%; the “percent inhibition” value (6 minutes after ADP, 100 γ) amounted to 52%; the “percent inhibition” value (6 minutes after ADP, 200 γ) came to 71%.

Take `CO[C@]12C[C@@H](CSc3ccc([N+](=O)[O-])cn3)CN(C)[C@@H]1Cc1cn(C)c3cccc2c13` [compound 926, 5'-Nitro-2'-pyridyl-10α-methoxy-1,6-dimethylergoline-8β-methyl sulphide]: the “percent inhibition” value under setting [1] came to 25%; the “percent inhibition” value under setting [2] turned out to be 61%; the “percent inhibition” value under setting [3] came to 100%; the “percent inhibition” value (3 minutes after ADP, 50 γ) is 13%; the “percent inhibition” value (3 minutes after ADP, 100 γ) worked out at 55%; the “percent inhibition” value (3 minutes after ADP, 200 γ) turned out to be 100%. The “percent inhibition” value runs as follows: (6 minutes after ADP, 50 γ) 17%; (6 minutes after ADP, 100 γ) 65%; (6 minutes after ADP, 200 γ) 100%.
